Source: publication PMC8474110 (Journal of Medicinal Chemistry, 2021)
Like-named read-outs stand apart in the source and are kept apart here.

Assay: Chemical stability (kinetics of chemical hydrolysis) in buffer solutions
Assay type: physicochemical
Conditions: for half-life at 9.1 µM: read-out: t1/2, chemical stability (converted)
Method: The chemical stability of (±)-1 was evaluated in buffer solutions at pH 1.3 and 7.4 (Table 1).
A 0.02 M phosphate buffer (PBS, pH 7.4) and a 0.02 M hydrochloric buffer (pH 1.3) containing 0.1% (v/v) Cremophor ELP, was used to evaluate chemical stabilities at physiological pHs. The reaction was initiated by adding 1 mL of 10^–4 M stock solution (in acetonitrile) of the compound to 10 mL of thermostated (37 ± 0.5 °C) buffer solution. At established time points, the samples (20 μL) were withdrawn and analyzed by HPLC. Pseudo-first-order rate constants (kobs) for the hydrolysis of the compounds were then calculated considering the slopes of the linear plots of log (% residual compound) against time. The analyses were run in triplicate, and the mean values of the rate constants were calculated.

## CCCC(CCC)C(=O)OC(CCCN1CCC(O)(c2ccc(Cl)cc2)CC1)c1ccc(F)cc1 (racemic) [(±)-1]
Buffer pH 1.3, 37 °C
  Kobs, chemical stability: 0.007 ± 0.001 h^–1
Buffer pH 7.4, 37 °C
  Kobs, chemical stability: 0.007 ± 0.001 h^–1
Buffer solutions at pH 1.3 and 7.4 (both environments)
  time the racemate was stable: about 4 days
Hydrochloric buffer, buffer pH 1.3, 37 °C
  half-life at 9.1 µM: 4.17 ± 0.129 days
Phosphate buffer, buffer pH 7.4, 37 °C
  half-life at 9.1 µM: 4.02 ± 0.0667 days
